Test results taken from publication PMC3211509 (Nanoscale Research Letters, 2011).

Columns and labels:
[1] = parameters: method as in earlier work; details: oral, 1 compartment, first-order elimination ref 15; cited from earlier work
[2] = system: human vascular smooth muscle (VSM) cell; parameters: method as in PMID 11090543, PMID 11842228; details: cited from earlier work
[3] = system: spontaneously hypertensive rats; parameters: method as in printed; details: reported, ref not given; cited from earlier work
[4] = Drug absorbed in vivo after oral dose (Wagner-Nelson equation); details: rat, 30 mg/kg, at Cmax
Text: A model based on the Wagner-Nelson (W-N) equation was established in-house and was used to calculate the drug absorbed to further assess the amount of drug absorbed as a function of time. The utilization of the W-N equation allows us to obtain all the drug that is absorbed (including excreted) at different time points. This allowed us to estimate the relationship and the impact on the absorption on the surface area changes of the drug. [drawing 2] [drawing 3]
where A is the drug absorbed, V is the volume of distribution, Cp is the plasma concentration, K is the elimination rate constant, and t is time.
In order to understand the degree of improvement provided by an oral nanosuspension formulation, simulations were performed using a Wagner-Nelson equation-based model that was established in-house in order to assess the amount of drug absorbed (dA) as a function of time. In this model, the stomach empting time was taking into consideration. […] The unit surface area by weight (A/W) was calculated to estimate the surface area reduction after the absorption took place, and the total residual surface area (RA) was calculated for each time point. The absorption efficiency (AE) was calculated by taking the ratio of the amount of drug available and was divided by the RA (AE = W/RA), and the absorption constant (K) was calculated as AE/δT. […]

[5] = parameters: method as in printed; details: ref not given; cited from earlier work

Drug absorbed, In vivo (Wagner-Nelson equation) [4]: 1.1 mg
Compound: O=C(NC1CCCCC1)NC1CCCCC1 [DCU, 1,3-Dicyclohexylurea]
K01 (absorption rate constant) [1]: 26.3 h⁻¹
K10 (elimination rate constant) [1]: 0.277 h⁻¹
Vf [1]: 5.8 L
human VSM cell proliferation [2]: inhibits human vascular smooth muscle (VSM) cell proliferation in a dose-dependent manner
effect on systemic blood pressure [3]: lower systemic blood pressure
free fraction in plasma (unbound) [5]: 3%
